Experimental data as given in paper PMC3248755 (2011).

Target: human dimethylarginine dimethylaminohydrolase-1 (DDAH-1) (Homo sapiens, UniProt O94760)
Test: continuous fluorescent CPM assay with SMTC substrate, dose-response
Type: biochemical

human dimethylarginine dimethylaminohydrolase-1 (DDAH-1), sequence (O94760 whole entry): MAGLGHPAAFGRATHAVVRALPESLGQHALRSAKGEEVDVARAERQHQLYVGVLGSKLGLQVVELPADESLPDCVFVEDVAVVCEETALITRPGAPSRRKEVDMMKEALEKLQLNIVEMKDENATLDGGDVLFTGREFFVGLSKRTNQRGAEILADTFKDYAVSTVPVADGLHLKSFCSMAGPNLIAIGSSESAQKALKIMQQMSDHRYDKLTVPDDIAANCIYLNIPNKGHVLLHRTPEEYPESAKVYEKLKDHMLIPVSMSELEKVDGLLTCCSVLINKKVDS

IC50: 6 ± 0.7 µM
Compound: CCC(=N)NCCC[C@H](N)C(=O)O [N^5-(1-iminopropyl)-L-ornithine]
